This passage reports inhibition, IC50 and TC50 results from ChEMBL document CHEMBL1128954, “Discovery of antirhinoviral leads by screening a combinatorial library of ureas prepared using covalent scavengers” (Bioorg Med Chem Lett, 1996).

The test system of assay [1] is Human rhinovirus sp. The assay is described as follows: Compound was evaluated for the inhibition of human rhinovirus-14 HRV-14 at 1 ug/ml. It counts as functional.
In assay [2] the test system is Human rhinovirus sp. Nature of the assay: Compound was evaluated for antirhinoviral activity against human rhinovirus-14 (HRV-14) in whole cell assay. The format is functional, organism-based.
Assay [3] relates to Human rhinovirus sp. The assay is described as follows: Compound was evaluated for cytotoxicity against human rhinovirus-14 (HRV-14) in whole cells as cresynthesized product using XTT assay. The format is functional. (In general: Tetrazolium assays rely on reduction of a dye to a coloured formazan, in cell work by metabolically active cells.)
In assay [4] the test system is Human rhinovirus sp. The assay is described as follows: Compound was evaluated for cytotoxicity against human rhinovirus-14 (HRV-14) in whole cells as combinatorial sample. It counts as functional.
Assay [5] deals with Human rhinovirus sp. Nature of the assay: Compound was evaluated for antirhinoviral activity against human rhinovirus-14 (HRV-14) as combinatorial sample. The format is functional, organism-based.
Assay [6] relates to Human rhinovirus sp. Nature of the assay: Compound was evaluated for antirhinoviral activity against human rhinovirus-14 (HRV-14) as resynthesized product using XTT assay. It counts as functional, organism-based.

Each structure is given as a SMILES string.

A word on the inhibition: it is the change of the read-out against control, counted positive when it falls. For orientation: IC50 means the concentration needed to halve the response being measured. For `CCCCOC(=O)c1ccc(NC(=O)N2CCN(CC(=O)NC(C)C)CC2)cc1`, the inhibition at 1 µg/mL with Human rhinovirus sp. [1] was determined as 101%. Also, the IC50 in the assay with Human rhinovirus sp. [2] was 2.4 µM; in the assay with Human rhinovirus sp. [2] (Human rhinovirus sp.), 1.8 µM. In addition, the TC50 with Human rhinovirus sp. [3] and in the assay with Human rhinovirus sp. [4] was more than 40 µM in each case.
As to `CCCCOC(=O)c1ccc(NC(=O)NCCNC(C)=O)cc1`, the inhibition at 1 µg/mL in the assay with Human rhinovirus sp. [1] turned out to be 0%.
On the same count and under the same terms, the value for `CCCCOC(=O)c1ccc(NC(=O)N2CCCC(C(N)=O)C2)cc1` (stereo not drawn) was 1%.
As to `CCCCOC(=O)c1ccc(NC(=O)NCCc2ccc(S(N)(=O)=O)cc2)cc1`, the inhibition at 1 µg/mL in the assay with Human rhinovirus sp. [1] amounted to 102%. The TC50 is more than 40 µM in the assay on Human rhinovirus sp. [3] and 34 µM with Human rhinovirus sp. [4]. The IC50 in the assay with Human rhinovirus sp. [5] is 0.69 µM; in the assay with Human rhinovirus sp. [6] it was 0.81 µM.
In the case of `CCCCOC(=O)c1ccc(NC(=O)N2CCCCC2O)cc1` (stereo not drawn), the inhibition at 1 µg/mL in the assay with Human rhinovirus sp. [1] was 2%.
For the compound `CCCCOC(=O)c1ccc(NC(=O)N2CCSCC2)cc1`, the inhibition at 1 µg/mL in the assay with Human rhinovirus sp. [1] amounted to 1%.
Still for that read-out and setting: the result for `CCCCOC(=O)c1ccc(NC(=O)N2CCC(C(N)=O)CC2)cc1` reads 0%; that for `CCCCOC(=O)c1ccc(NC(=O)NC2CC3CCC2C3)cc1` (stereo not drawn), 1%; that for `CCCCOC(=O)c1ccc(NC(=O)N2CCN(c3ccccn3)CC2)cc1`, 0%.
On the same count and under the same terms, the value for `CCCCOC(=O)c1ccc(NC(=O)N2CCCC(C(=O)N(CC)CC)C2)cc1` (stereo not drawn) was 0%.
